{"source": "patent US20220142948A1", "about": "“COMPOSITIONS AND METHODS FOR MODULATING METABOLIC REGULATORS OF T CELL PATHOGENICITY” (The Broad Institute, Inc., priority 2019, published 2022)", "key": {"[1]": {"system": "Th17n, Th17p and iTreg cells", "assay": "Population ATAC-seq chromatin accessibility", "format": "cell-based, mouse", "text": "ATAC-seq. For population ATAC-seq, in vitro differentiated T-cells were sorted for live cells and froze down in Bambanker freezing media (Thermo Fisher Scientific).\nAlignment of ATAC-Seq and Peak Calling. All ATAC-Seq reads were trimmed using Trimmomatic to remove primer and low-quality bases. Reads <36 bp were dropped. Reads were then passed to FastQC [www.bioinformatics.babraham.ac.uk/projects/fastqc/] to check the quality of the trimmed reads. The paired-end reads were then aligned to the mm10 reference genome using bowtie2 [29], allowing maximum insert sizes of 2000 bp, with the “—no-mixed” and “—no-discordant” parameters added. Reads with a mapping quality (MAPA) below 30 were removed. Duplicates were removed with PicardTools, and the reads mapping to the blacklist regions and mitochondrial DNA were also removed. Reads mapping to the positive strand were moved +4 bp, and reads mapping to the negative strand were moved −5 bp following the procedure outlined in [30] to account for the binding of the Tn5 transposase.\n(§1) Peaks were called using macs2 on the aligned fragments with a qvalue cutoff of 0.001 and overlapping peaks among replicates were merged.\nTests of Differential Accessibility in ChARs. Differential accessibility was assessed using DESeq2 [32] on with a matrix of peaks by samples replacing the genes by samples matrix. Counts of Tn5 cuts were used instead of gene expression values.\nATAC-seq. For population ATAC-seq, in vitro differentiated T-cells were sorted for live cells and stored in Bambanker freezing media (Thermo Fisher Scientific) at −80° C. until further processing. Prior to library preparation, cells were thawed at 37° C. and washed with PBS. For ATAC-seq, cell pellets were lysed and tagmented in 1×TD Buffer, 0.2 ul TDE1 (Illumina), 0.01% digitonin, and 0.3×PBS in 40 ul reaction volume following the protocol described in [49]. Transposition reactions were incubated at 37° C. for 30 min at 300 rpm. The DNA was purified from the reaction using a MinElute PCR purification kit (QIAGEN). The whole resulting product was then PCR-amplified using indexed primers with NEBNext High-Fidelity 2X PCR Master Mix (NEB). First, Applicants performed 5 cycles of pre-amplification. Applicants sampled 10% of the pre-amplification reaction for SYBR Green quantitative PCR to assess the number of additional cycles needed for final amplification. After purifying the final library with the MinElute PCR purification kit (QIAGEN), the library was quantified for sequencing using qPCR and a Qubit dsDNA HS Assay kit (Invitrogen). Libraries were sequenced on an Illumina NextSeq 550 system with paired-end reads of 37 base pairs in length.\nAlignment of ATAC-Seq and Peak Calling. All ATAC-Seq reads were trimmed using Trimmomatic to remove primer and low-quality bases. Reads <36 bp were dropped. Reads were then passed to FastQC [www.bioinformatics.babraham.ac.uk/projects/fastqc/] to check the quality of the trimmed reads. The paired-end reads were then aligned to the mm10 reference genome using bowtie2 [51], allowing maximum insert sizes of 2000 bp, with the “—no-mixed” and “—no-discordant” parameters added. Reads with a mapping quality (MAPA) below 30 were removed. Duplicates were removed with PicardTools, and the reads mapping to the blacklist regions and mitochondrial DNA were also removed. Reads mapping to the positive strand were moved +4 bp, and reads mapping to the negative strand were moved −5 bp following the procedure outlined in [52] to account for the binding of the Tn5 transposase.\nas §1\nTests of Differential Accessibility. Differential accessibility was assessed using DESeq2 [54] on with a matrix of peaks (merging all samples) by samples. […]"}, "[2]": {"system": "Th17 cells (Th17n, Th17p)", "assay": "qPCR of in vitro differentiated T cells", "format": "cell-based, mouse", "method": "qPCR. RNA was isolated using RNeasy Plus Mini Kit (Qiagen) and reverse transcribed to cDNA with iScript cDNA Synthesis Kit (Bio-Rad). Gene expression was analyzed by quantitative real-time PCR on a ViiA7 System (Thermo Fisher Scientific) using TaqMan Fast\nAdvanced Master Mix (Thermo Fisher Scientific) with the following primer/probe sets: Il-17a (Mm00439618_m1), Il-17f (Mm00521423_m1), Foxp3 (Mm00475162_m1), Tead1 (Mm00493507_m1), Taz (Mm00504978_m1), Sat1 (Mm00485911_g1) and Actb (Applied Biosystems). Expression values were calculated relative to Actb detected in the same sample by duplex qPCR.\nqPCR. RNA was isolated using RNeasy Plus Mini Kit (Qiagen) and reverse transcribed to cDNA with iScript cDNA Synthesis Kit (Bio-Rad). Gene expression was analyzed by quantitative real-time PCR on a ViiA7 System (Thermo Fisher Scientific) using TaqMan Fast Advanced Master Mix (Thermo Fisher Scientific) with the following primer/probe sets: Ass1 (Mm00711256_m1), Odc1 (Mm02019269_g1), Sat1 (Mm00485911_g1), Srm (Mm00726089_s1), Sms (Mm00786246_s1), Il-17a (Mm00439618_m1), Il-17f (Mm00521423_m1), Foxp3 (Mm00475162_m1), Tead1 (Mm00493507_m1), Taz (Mm00504978_m1), and Actb (Applied Biosystems). Expression values were calculated relative to Actb detected in the same sample by duplex qPCR."}, "[3]": {"details": "non-pathogenic and pathogenic Th17 cells"}}, "note": "“Also recorded” adds a separate entry of the source.", "data": [{"compound": "NCCC[C@](N)(C(=O)O)C(F)F", "note": "[DFMO, 2-(difluoromethyl)ornithine]", "values": [{"measurement": "ATACseq peaks in the Il23r region", "setting": "[1]", "value": "no significant difference"}, {"measurement": "accessibility in Th17 specific regions", "setting": "[1]", "value": "specifically reduced accessibility; also recorded: reduces accessibility; also recorded: more restricted landscape; also recorded: less accessibility"}, {"measurement": "accessibility in Treg specific regions", "setting": "[1]", "value": "more accessible landscape; also recorded: more accessibility"}, {"measurement": "peaks near regulatory elements for Foxp3 such as CNS2", "setting": "[1]", "value": "no differentially expressed peaks"}, {"measurement": "peaks in the promoter and intergenic regions of Il17a-Il17f", "setting": "[1]; Rorgt binding site", "value": "significantly restricted peaks"}, {"measurement": "accessibility near potential binding sites of JMJD3 and POU-domain TFs", "setting": "[1]; Th17n cells", "value": "increased accessibility"}, {"measurement": "accessible peaks overall", "setting": "[1]; Th cells analyzed", "value": "alters chromatin accessibility; also recorded: significant changes in accessible peaks; also recorded: considerable changes in accessible peaks"}, {"measurement": "motif enrichment in iTreg-specific accessible regions", "setting": "[1]; both Th17n and Th17p cells", "value": "significant enrichment of BATF and cMAF motifs"}, {"measurement": "Ass1 expression", "setting": "[2]", "value": "specifically suppresses"}, {"measurement": "IL-17 (quantitative real time PCR)", "setting": "[2]; CD4 T cells", "value": "decreased"}, {"measurement": "SAT1 expression", "setting": "[2]; T cells, Th17n and Th17p", "value": "reduces the expression; also recorded: decrease; also recorded: specifically suppresses; also recorded: decreases expression; also recorded: consistently suppressed"}, {"measurement": "relative expression of Foxp3", "setting": "[2]; [3]", "value": "increase"}, {"measurement": "relative expression of IL17A", "setting": "[2]; [3]", "value": "decrease"}, {"measurement": "relative expression of IL17F", "setting": "[2]; [3]", "value": "decrease"}, {"measurement": "SAT1 expression", "setting": "[2]; pathogenic Th17 cells", "value": "decreased expression"}]}]}
